Reference: patent US20250195671A1, “COVALENT ANESTHETIC-POLYMER CONJUGATES FOR PROLONGED LOCAL ANESTHESIA” (priority 2017, published 2025)
Where two headings read alike, the source gives them in different places.

Assays:
[1] = test system: rat; conditions: in vivo
[2] = test system: sciatic nerve and surrounding tissues; conditions: rat, in vivo
[3] = test system: sciatic nerve; conditions: rat, in vivo
[4] = in vivo; cited from earlier work
[5] = cited from earlier work
[6] = test system: rat sciatic nerve; conditions: rat model; cited from earlier work
[7] = test system: sciatic nerve

Compound: poly(glycerol sebacate) [TgD8]
- Contralateral block (%) [1]: 0%
- Mortality (%) [1]: 0%

Compound: N=C1NC(O)[C@H]2[C@@H]3OC4(O)OC(C(O)[C@@]2(N1)[C@@H]4O)[C@]3(O)CO (some centres unmarked) [TTX, Tetrodotoxin]
- Median inflammation score (range), Day 4 [2]: 0.5(0-1)
- Median inflammation score (range), Day 14 [2]: 0(0-0)
- Median myotoxicity score (range), Day 4 [2]: 0(0-0)
- Median myotoxicity score (range), Day 14 [2]: 0.5(0-1)^
- myotoxicity and inflammation, microscopic examination [2]: did not reveal significant myotoxicity and inflammation
- blockade, % of animals [3]: 100%
- nerve blockade, % of animals [3]: 100%
- successful block, % of animals [3]: 100%

Compound: COc1cc(CNC(=O)CCCC/C=C/C(C)C)ccc1O [capsaicin, 8-Methyl-N-vanillyl-trans-6-nonenamide]
- pharmacokinetic half-life [4]: approximately 24 hours
- solubility ([5]; alcohol, fats and oils): freely soluble
- solubility ([5]; cold water): insoluble
- minimum effective dose to produce nerve blockade [6]: approximately 50 μg

Compound: O=C1OC2(c3ccc(O)cc3Oc3cc(O)ccc32)c2ccccc21 [fluorescein sodium]
- fluorescence in the nerve ([7]; 0.25 mg in 0.5 mL of PBS, 1 and 4 hours): No fluorescence was observed in the nerve
- fluorescence in the nerve ([7]; 0.25 mg in 0.5 mL of PEG200, four hours after injection): none
- fluorescence in the nerve ([7]; 0.25 mg in 0.5 mL of PEG200, one hour after injection): fluorescence was observed throughout the nerve
